The values below come from patent publication US10562857B2 (AFASCI, Inc., priority 2015, dated 2020).

Test [1] relates to incision-induced pain in mice. As to the kind of experiment: Incision-induced acute pain in mice, von Frey test. It counts as in vivo, mouse. The settings on record: 30 mg/kg I.P. As to the method: FIG. 9. Effects of EXAMPLE-116, -118 or ML218 (a reference compound) on incision-induced acute pain in mice (C57BL/6, male, ˜2 months old; n=8 mice per treatment group). Mechanical pain threshold assessment (von Frey monofilament test) of the mice's incision left hindpaws. Each mouse received either EXAMPLE-116, -118, or ML218 (as a reference compound, each 30 mg/kg, I.P.) or vehicle (2% DMSO in 0.5% HPC, I.P.). Mechanical pain responses were measured at 0.5, 1, 2, 4, and 5 hours after treatment.
To further confirm the Cav3 modulator effects on acute pain and neurogenic inflammatory pain, an incision-pain mode in mice was used. Postoperative pain model induced by a deep incision in the hindpaw produces robust mechanical allodynia (Pogatzki et al., 2003). Mechanical pain thresholds were assessed using von Frey monofilament test of the incised left hindpaws. Each mouse received either EXAMPLE-116, -118, ML218 (as a reference compound, each 30 mg/kg, I.P.) or vehicle (2% DMSO in 0.5% HPC, I.P., n=8 mice per treatment group). Mechanical pain responses were measured at 0.5, 1, 2, 4, and 5 hours after treatment.

Another test concerns the target T1, Cav3.2 channel (Homo sapiens, UniProt O95180).
T1 construct: expressed in transfected cells; host or cells: HEK-293, tetracycline inducible expression system (Invitrogen)
As to the kind of experiment: Whole-cell patch clamp of T-type Cav3.2 channel expressed in HEK293 cells. It counts as cell-based. The settings on record: for inhibition at 1 µM: HEK293, Table 1 primary screening. In general terms: In patch-clamp work, channel activity is measured electrically.

The next test relates to T-type Ca2+ current. The conditions noted are these: Avdonin et al., 2000; cited from earlier work.
Test [2] deals with SNI rats. Put plainly: Spared nerve injury (SNI) rats, von Frey monofilament test. It counts as in vivo, rat. The conditions noted are these: for start of drug action post-injection: 30 mg/kg I.P., thermal and mechanical thresholds; for mechanical pain threshold of left hindpaw (allodynia): 30 mg/kg, 1 mL I.P. How it is done: FIG. 3B. Mechanical pain threshold assessment (von Frey monofilament test) of SNI rats' left hindpaws. Each SNI rat received either EXAMPLE-106, -107, and -115 (each 30 mg/kg, 1 mL I.P.), or vehicle (1 mL I.P. 2% DMSO in 0.5% HPC). Sham rats also received vehicle I.P. injections. […] The sham-vehicle serves as a positive control. Thermal and mechanical pain responses were measured once every hour for 8 consecutive hours after I.P. treatment (n=8 rats per treatment group).
FIG. 4. Mechanical pain threshold assessment (von Frey monofilament test) of left hindpaws in another cohort of SNI rats. Each SNI rat received either EXAMPLE-128, -130, -132, or Z944 (as a reference compound, each 10 mg/kg, 2 mL oral gavage, P.O.). […] Mechanical pain responses were measured at pre-dosing, 1, 2, 4, and 6 hours post-treatment using von Frey monofilament test (n=8 rats per group).
(§1) In additional examples shown here, the analgesic effects were further evaluated in another rat species. Baseline thermal and mechanical thresholds of male rats (Sprague-Dawley rats, 275 g-325 g, Harlan) were taken prior to surgery; baseline thresholds were measured on the rats' left hindpaws. Thirty-two rats underwent the SNI surgery on their left hind leg; 8 rats underwent surgery without injury of the nerves as a sham group. Two weeks post-surgery, the thermal thresholds of each rat were reassessed. […] Each rat received either EXAMPLE-106, -107, -115 (each 30 mg/kg, 1 mL I.P.), or vehicle (2% DMSO in 0.5% HPC). Thermal and mechanical thresholds were measured at 1, 2, 3, 4, 5, 6, 7, and 8 hours post-treatment/dosing. […] The drug actions started around 1 hour post-injection and peaked between 2 and 3 hours, and the drug effects gradually declined to pre-treatment levels over 6-7 hours (FIGS. 3A and B).
In another cohort of SNI rats ((n=8 per group)), mechanical thresholds were measured at pre-dosing, 1, 2, 4, and 6 hours post-treatment using von Frey monofilament test.

The subject of a further test is CFA mice. Put plainly: Complete Freund's Adjuvant (CFA)-induced inflammatory pain in mice, von Frey test. Format: in vivo, mouse. The conditions noted are these: 30 mg/kg I.P. How it is done:
FIG. 7. Effects of EXAMPLE-96, 107 or 115 (each 30 mg/kg, I.P.) or gabapentin (as a benchmark, 100 mg/kg, I.P) on Complete Freund's Adjuvant (CFA)-induced inflammation in male, mice (C57BL/6, ˜2 months old; n=8 mice per group). Mechanical pain threshold assessment of CFA mice's left hindpaws were measured using von Frey monofilament test at 0.5, 1, 2, 4, and 6 hours after treatment.
Because knockout or antisense knockdown of the Cav3.2 isoform produces analgesic effects in neuropathic pain as well as in inflammatory pain in mice (Choi et al., 2007), we used the Complete Freund adjuvant (CFA)-inflammatory pain in mice to investigate the drug effects. EXAMPLE-96, -115, and -107 (each at 30 mg/kg, I.P.) and a reference gabapentin (100 mg/kg, I.P.) was individually administered to mice that had CFA-induced inflammation on their left hindpaws.

Test [3] concerns SNI rats. As to the kind of experiment: Spared nerve injury (SNI) rats, Hargreaves thermal test. Format: in vivo, rat. The settings on record: 30 mg/kg, 1 mL I.P. As to the method: FIG. 3A. Spared Nerve Injury (SNI) rats' left hindpaw withdrawal latencies in response to thermal stimulation (Hargreaves test). Each SNI rat received either EXAMPLE-106, 107, or 115, (each 30 mg/kg, 1 mL I.P.), or vehicle (2% DMSO in 0.5% HPC). Sham rats also received vehicle I.P. injections. […] 40 seconds were cutoff in order to prevent tissue damage. The sham-vehicle serves as a positive control (n=8 per treatment group).
as §1

Test [4] concerns taxol-induced neuropathic pain model in mice. Put plainly: Taxol-induced neuropathic pain in mice, von Frey test. Format: in vivo, mouse. The settings on record: 30 mg/kg I.P. As to the method: FIG. 6A. Effects of EXAMPLE-115 on taxol (4 mg/kg, I.P.)-induced neuropathic pain model in mice. Mechanical pain thresholds of left hindpaws were assessed using von Frey monofilament test. Each mouse received either EXAMPLE-115 (3, 10 or 30 mg/kg, I.P.) or vehicle (2% DMSO in 0.5% HPC, I.P.; n=8 per group). Injection of taxol lowered mechanical pain thresholds.
FIG. 6B. Effects of EXAMPLE-123 on taxol (4 mg/kg, I.P.)-induced neuropathic pain model in a separate cohort of mice. Mechanical pain thresholds of left hindpaws were assessed using von Frey monofilament test. Each mouse received either EXAMPLE-123 (30 mg/kg, I.P., n=8) or vehicle (2% DMSO in 0.5% HPC, I.P.).
Chemotherapy-induced painful neuropathy is a common side effect associated with chronic treatment with Taxol (paclitaxel) or other anticancer drugs based on cytotoxicity. Taxol or paclitaxel is one of the most popular drugs used for the treatment of various cancers (Chaudhry et al., 1994). The chemotherapy-induced peripheral neuropathy manifests as chronic hyperalgesia and other sensory abnormalities. Taxol (Sigma, 4.0 mg/kg, I.P.) was dissolved in saline containing 5% DMSO (vehicle) and injected to mice (freshly prepared before injection).

“Also recorded” adds a separate entry of the source.

T1 sequence (O95180 whole entry): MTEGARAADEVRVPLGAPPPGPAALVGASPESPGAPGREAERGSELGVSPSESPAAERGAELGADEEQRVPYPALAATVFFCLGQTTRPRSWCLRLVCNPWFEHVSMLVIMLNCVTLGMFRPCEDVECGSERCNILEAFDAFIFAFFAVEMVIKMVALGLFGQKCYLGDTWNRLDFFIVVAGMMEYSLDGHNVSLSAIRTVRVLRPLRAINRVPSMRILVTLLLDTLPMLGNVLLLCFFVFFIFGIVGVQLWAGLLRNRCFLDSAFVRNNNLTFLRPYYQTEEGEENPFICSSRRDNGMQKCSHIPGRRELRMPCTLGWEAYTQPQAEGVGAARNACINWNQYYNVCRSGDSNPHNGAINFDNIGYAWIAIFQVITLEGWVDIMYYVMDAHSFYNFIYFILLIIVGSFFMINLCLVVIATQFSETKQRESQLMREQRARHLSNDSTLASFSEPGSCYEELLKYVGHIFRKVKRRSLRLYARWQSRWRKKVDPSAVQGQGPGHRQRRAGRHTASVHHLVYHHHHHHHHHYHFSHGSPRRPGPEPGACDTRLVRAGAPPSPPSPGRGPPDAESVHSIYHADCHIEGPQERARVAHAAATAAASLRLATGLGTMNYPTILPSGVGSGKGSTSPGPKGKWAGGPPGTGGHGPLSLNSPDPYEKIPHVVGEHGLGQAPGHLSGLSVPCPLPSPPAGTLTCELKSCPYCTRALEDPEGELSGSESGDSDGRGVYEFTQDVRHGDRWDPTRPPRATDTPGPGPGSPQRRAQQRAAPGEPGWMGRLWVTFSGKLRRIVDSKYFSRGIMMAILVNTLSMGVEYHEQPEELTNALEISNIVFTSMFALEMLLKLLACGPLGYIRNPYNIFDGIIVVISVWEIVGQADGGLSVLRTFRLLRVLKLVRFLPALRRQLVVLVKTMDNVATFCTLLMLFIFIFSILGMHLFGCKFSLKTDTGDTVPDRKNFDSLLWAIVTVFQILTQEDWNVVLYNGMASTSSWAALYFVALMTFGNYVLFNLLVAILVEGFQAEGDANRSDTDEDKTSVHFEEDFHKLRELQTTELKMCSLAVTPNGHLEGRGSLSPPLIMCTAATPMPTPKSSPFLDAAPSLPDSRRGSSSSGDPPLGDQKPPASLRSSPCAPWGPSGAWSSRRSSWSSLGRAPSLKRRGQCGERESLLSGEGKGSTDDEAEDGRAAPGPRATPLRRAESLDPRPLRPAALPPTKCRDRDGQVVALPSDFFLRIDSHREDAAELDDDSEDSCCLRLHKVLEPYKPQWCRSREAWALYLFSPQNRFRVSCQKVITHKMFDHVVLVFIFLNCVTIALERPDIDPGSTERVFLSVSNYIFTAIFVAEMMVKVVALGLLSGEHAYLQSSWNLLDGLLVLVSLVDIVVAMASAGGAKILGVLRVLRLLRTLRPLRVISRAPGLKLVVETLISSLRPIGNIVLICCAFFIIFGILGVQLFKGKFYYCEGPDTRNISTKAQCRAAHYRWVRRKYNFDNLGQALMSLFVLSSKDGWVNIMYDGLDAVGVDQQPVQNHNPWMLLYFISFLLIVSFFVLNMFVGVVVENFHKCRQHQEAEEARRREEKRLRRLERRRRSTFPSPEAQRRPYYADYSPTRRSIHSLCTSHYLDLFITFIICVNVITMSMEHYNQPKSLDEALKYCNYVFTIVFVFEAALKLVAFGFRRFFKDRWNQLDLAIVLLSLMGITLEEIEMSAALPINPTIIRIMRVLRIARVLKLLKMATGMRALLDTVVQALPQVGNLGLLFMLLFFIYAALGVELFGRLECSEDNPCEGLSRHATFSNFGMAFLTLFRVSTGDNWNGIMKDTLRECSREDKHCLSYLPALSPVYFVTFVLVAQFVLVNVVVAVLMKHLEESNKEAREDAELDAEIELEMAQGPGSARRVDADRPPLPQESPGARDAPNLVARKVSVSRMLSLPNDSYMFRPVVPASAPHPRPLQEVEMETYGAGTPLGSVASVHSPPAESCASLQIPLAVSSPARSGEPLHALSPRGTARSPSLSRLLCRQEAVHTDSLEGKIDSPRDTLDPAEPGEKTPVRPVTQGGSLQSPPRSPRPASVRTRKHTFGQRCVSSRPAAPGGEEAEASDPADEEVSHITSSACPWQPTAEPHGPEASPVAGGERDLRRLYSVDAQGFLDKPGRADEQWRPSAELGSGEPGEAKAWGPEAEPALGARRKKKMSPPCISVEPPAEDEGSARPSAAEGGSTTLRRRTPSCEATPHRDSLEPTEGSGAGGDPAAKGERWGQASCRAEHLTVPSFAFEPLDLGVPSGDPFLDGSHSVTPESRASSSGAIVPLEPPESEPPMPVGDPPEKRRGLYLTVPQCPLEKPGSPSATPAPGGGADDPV

As for `O=C(CCc1cccc(Cl)c1)Nc1nnc(-c2ccc(Cl)s2)o1` [Example 118, 3-(3-Chlorophenyl)-N-(5-(5-chlorothiophen-2-yl)-1,3,4-oxadiazol-2-yl)propanamide], in test [1], the “mechanical pain threshold, incision-induced pain” value was “inhibited incision-induced inflammatory pain”. In addition, at Cav3.2 channel, the inhibition at 1 µM came out at 20%.
For `O=C(Nc1nnc(-c2ccc(Cl)s2)o1)N1C(=O)c2cc(Cl)c(Cl)cc2C1=O` [Example 116, 5,6-Dichloro-N-(5-(5-chlorothiophen-2-yl)-1,3,4-oxadiazol-2-yl)-1,3-dioxoisoindoline-2-carboxamide] the same measures were “inhibited incision-induced inflammatory pain” and 10%.
With `COCC(=O)O[C@]1(CCN(C)CCCc2nc3ccccc3[nH]2)CCc2cc(F)ccc2[C@@H]1C(C)C` [mibefradil], the “potency of T-type inhibition relative to L-type Ca2+ current or voltage-gated Na+ current” value in the test with T-type Ca2+ current is 3-10 times.
In the case of `CC1(CNC(=O)c2ccccc2)CCN(CC(=O)NC(C)(C)C)CC1` [Example 107, N-((1-(2-(tert-butylamino)-2-oxoethyl)-4-methylpiperidin-4-yl)methyl)benzamide], in the test on SNI rats [2], the “start of drug action post-injection” value was “around 1 hour”; the “mechanical pain threshold of left hindpaw (allodynia)” value was “elevated both thermal and mechanical thresholds; also recorded: reduced allodynia”. For the same molecule, the “mechanical pain threshold, CFA-induced inflammation” value in the test on CFA mice is given as “showed an analgesic effect in mechanical pain”. Moreover, in the test with SNI rats [3], the “left hindpaw withdrawal latency to thermal stimulation (hyperalgesia)” value is “elevated both thermal and mechanical thresholds; also recorded: reduced hyperalgesia”. In addition, at Cav3.2 channel, the inhibition at 1 µM stood at 21%.
Consider `O=C(CNc1ccccc1)Nc1nnc(-c2ccccc2)o1` [Example 123, N-(5-Phenyl-1,3,4-oxadiazol-2-yl)-2-(phenylamino)acetamide], for which the “duration of reduction of taxol-induced neuropathic pain” value in test [4] was “at least 5 hours”. Further, the “mechanical pain threshold, taxol-induced neuropathic pain” value in test [4] (taxol 4 mg/kg I.P.) is recorded as “caused significant effects on Taxol-induced pain; also recorded: reduced the taxol-induced neuropathic pain”. The IC50 on Cav3.2 channel (Table 1, tested at at least 4 concentrations, read-out: IC50) turned out to be 5.1 µM.
Turning to `O=C(CN1CCC(CNCC(=O)c2ccc[nH]2)CC1)Nc1ccccc1` [Example 106, 2-(4-(((2-Oxo-2-(1H-pyrrol-2-yl)ethyl)amino)methyl)piperidin-1-yl)-N-phenylacetamide], in the test on SNI rats [2], the “start of drug action post-injection” value is “around 1 hour”; the “mechanical pain threshold of left hindpaw (allodynia)” value was “elevated both thermal and mechanical thresholds; also recorded: reduced allodynia”. Besides, the “left hindpaw withdrawal latency to thermal stimulation (hyperalgesia)” value with SNI rats [3] is “elevated both thermal and mechanical thresholds; also recorded: reduced hyperalgesia”.

In general, inhibition refers to the drop in the measured response relative to a control, in per cent. A higher inhibition goes with strong suppression. A word on the IC50: it is the midpoint of a concentration-inhibition curve.
